Entries after “also recorded” stand apart in the source; their conditions may differ.
Assays:
[1] = tested on: EMT-6 tumors that express E. coli PNP; assay: EMT-6 murine breast tumors expressing E. coli PNP (left flank) in mice, fludarabine phosphate plus or minus anti-CTLA4-9H10; format: in vivo, female BALB/c mice
Method: (§1) In order to evaluate efficacy, the parental EMT-6-EMU cell line and the EMT-6-PNP-EMU transduced cell line were evaluated. The EMT-6-PNP-EMU transduced cell line and the parental EMT-6-EMU cell line were implanted as shown below in each flank with or without dosing with fludarabine phosphate and/or anti-CTLA-4 antibody using female BALB/c mice.
(§2) Mice were implanted with EMT-6 murine tumors on both the right and left flanks. In groups 1 through 6 the right flanks were implanted with parental (non-PNP) tumors and the left flanks were implanted with tumors expressing E. coli PNP. In groups 7 through 10, both the right and left flanks were injected with parental tumors.

[2] = tested on: EMT-6 tumors that do not express E. coli PNP; assay: Parental EMT-6 murine breast tumors (non-PNP) in mice, fludarabine phosphate plus or minus anti-CTLA4-9H10; format: in vivo, female BALB/c mice; conditions: for abscopal effect on a non-PNP tumor of a contralateral PNP tumor regressing due to F-araAMP: F-araAMP 90 mg/kg with anti-CTLA4-9H10
Method: as §1, §2

[3] = FIG. 3 and 5, day 15, right flank non-PNP tumors, PNP tumor contralaterally

Nc1nc(F)nc2c1ncn2[C@@H]1O[C@H](COP(=O)(O)O)[C@@H](O)[C@@H]1O [fludarabine phosphate, 2-fluoro-9-(5-O-phosphono-β-D-arabinofuranosyl)-9H-purin-6-amine]
effect on EMT-6 breast tumors that express E. coli PNP ([1]; FIG. 1, groups 1, 2, 4, 5, F-araAMP 75 mg/kg plus or minus anti-CTLA4-9H10, left flank tumors): effective | effect on EMT-6 tumors that express E. coli PNP ([1]; FIG. 2, groups 1, 3, 4, 6, F-araAMP 90 mg/kg plus or minus anti-CTLA4-9H10, left flank tumors): effective | PNP/fludarabine phosphate treatment in combination with an anti-CTLA4 antibody ([1]; summary of FIG. 1, 2, 3): improve | tumor growth, group 4 (anti-CTLA4 alone) versus group 6 (fludarabine 90 mg/kg + anti-CTLA4), all tumors included in the analysis [2, 3]: not significantly different | tumor growth, group 4 (anti-CTLA4 alone) versus group 6 (fludarabine 90 mg/kg + anti-CTLA4), regressed tumors removed from the analysis [2, 3]: significantly different | augmentation of anti-CTLA4 antibody antitumor activity in non-PNP tumors ([2]; FIG. 3 and 5, groups 1, 3, 4, 6, F-araAMP 90 mg/kg, PNP tumor regressing contralaterally): augments | augmentation of anti-CTLA4 antibody activity in parental (non-PNP) tumors ([2]; FIG. 4 and 6, groups 7-10, F-araAMP 90 mg/kg, no PNP expression in the animal): augments; also recorded: enhances | abscopal effect on a non-PNP tumor of a contralateral PNP tumor regressing due to F-araAMP ([2]; FIG. 7): strong abscopal effect; also recorded: inhibits | abscopal effect on a non-PNP tumor of a contralateral PNP tumor regressing due to F-araAMP ([2]; FIG. 7, listed as F-araAMP): abscopal effect

B1: E. coli PNP: E. coli purine nucleoside phosphorylase expressed in the EMT-6-PNP-EMU transduced tumor cell line (protein, UniProt P0ABP8 2-239, looked up)
Purine nucleoside …: ATPHINAEMGDFADVVLMPGDPLRAKYIAETFLEDAREVNNVRGMLGFTGTYKGRKISVMGHGMGIPSCSIYTKELITDFGVKKIIRVGSCGAVLPHVKLRDVVIGMGACTDSKVNRIRFKDHDFAAIADFDMVRNAVDAAKALGIDARVGNLFSADLFYSPDGEMFDVMEKYGILGVEMEAAGIYGVAAEFGAKALTICTVSDHIRTHEQTTAAERQTTFNDMIKIALESVLLGDKE
effect of expressing E. coli PNP in a solid breast tumor on activity of checkpoint blockade inhibitors ([1]; summary of experiments): augments | tumor growth, group 6 (non-PNP right flank tumor, PNP tumor contralaterally) versus group 10 (right) or group 10 (left) ([2]; FIG. 7, day 15, both groups F-araAMP 90 mg/kg + anti-CTLA4-9H10): significantly different
